This assay relates to P388 leukemia ip, CD2F1 mice, survival T/C. As to the kind of experiment: NCI In Vivo Anticancer Drug Screen. Data for tumor model P388 Leukemia (intraperitoneal) in CD2F1 (CDF1) mice. Particulars: endpoint: median survival time, higher = longer survival. The gist of the method:
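Mice carrying the transplanted tumor received test compound or vehicle. Survival was recorded in each group, and the value is the treated-group measurement divided by that of the vehicle-treated control group.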

Setting [1] is: dose: 50.0 mg/kg/injection, schedule: Q01DX009 (ip), vehicle: saline with Tween-80.
Where [2] appears, read: dose: 100.0 mg/kg/injection, schedule: Q01DX009 (ip), vehicle: saline with Tween-80.
[3] abbreviates: dose: 100.0 mg/kg/injection, schedule: Q01DX001 (ip), vehicle: Klucel (hydroxypropylcellulose) (HPC).
The mark [4] stands for this setting: dose: 200.0 mg/kg/injection, schedule: Q01DX001 (ip), vehicle: Klucel (hydroxypropylcellulose) (HPC).
[5] abbreviates: dose: 50.0 mg/kg/injection, schedule: Q01DX005 (ip), vehicle: Klucel (hydroxypropylcellulose) (HPC).
Where [6] appears, read: dose: 100.0 mg/kg/injection, schedule: Q01DX005 (ip), vehicle: Klucel (hydroxypropylcellulose) (HPC).
Setting [7] is: dose: 200.0 mg/kg/injection, schedule: Q01DX005 (ip), vehicle: Klucel (hydroxypropylcellulose) (HPC).
[8] abbreviates: dose: 60.0 mg/kg/injection, schedule: Q01DX005 (ip), vehicle: Klucel (hydroxypropylcellulose) (HPC).
The mark [9] stands for this setting: dose: 120.0 mg/kg/injection, schedule: Q01DX005 (ip), vehicle: Klucel (hydroxypropylcellulose) (HPC).
Setting [10] is: dose: 240.0 mg/kg/injection, schedule: Q01DX005 (ip), vehicle: Klucel (hydroxypropylcellulose) (HPC).
The mark [11] stands for this setting: dose: 50.0 mg/kg/injection, schedule: Q01DX009 (ip), vehicle: Klucel (hydroxypropylcellulose) (HPC).
Where [12] appears, read: dose: 100.0 mg/kg/injection, schedule: Q01DX009 (ip), vehicle: Klucel (hydroxypropylcellulose) (HPC).
[13] abbreviates: dose: 200.0 mg/kg/injection, schedule: Q01DX009 (ip), vehicle: Klucel (hydroxypropylcellulose) (HPC).
[14] abbreviates: dose: 50.0 mg/kg/injection, schedule: Q01DX005 (ip), vehicle: saline with Tween-80.
The mark [15] stands for this setting: dose: 50.0 mg/kg/injection, schedule: Q01DX005 (ip), vehicle: saline.

“And” between values parts separate entries of the source, which are not always exact repeats. Equal values may be shown once. Inconclusive results and toxic doses are left out.

On to `COC(=O)C(NC(N)=O)OC` (configuration not stated), for which the T/C (dose: 25.0 mg/kg/injection, schedule: Q01DX009 (ip), vehicle: saline) is 105 % of control; the T/C (dose: 50.0 mg/kg/injection, schedule: Q01DX009 (ip), vehicle: saline) was 100 % of control; the T/C (dose: 100.0 mg/kg/injection, schedule: Q01DX009 (ip), vehicle: saline) was 103 % of control.
Turning to `CC[CH2][Sn]([CH2]CC)([CH2]CC)[CH2]CCBr`, the T/C under setting [1] was 106 % of control and the T/C under setting [2] was 100 % of control.
Consider `CN1CC(NC(=O)N(CCCl)N=O)CC2c3cccc4c3c(cn4N=O)CC21` (configuration not stated), for which the T/C (dose: 50.0 mg/kg/injection, schedule: Q01DX001 (ip), vehicle: Klucel (hydroxypropylcellulose) (HPC)) is 166 % of control; the T/C under setting [3] was 166 % of control and 201 % of control; the T/C under setting [4] was 166 % of control.
In the case of `Cc1c(C)c(C)c(S(=O)(=O)NCCCNS(=O)(=O)c2c(C)c(C)c(C)c(C)c2C)c(C)c1C`, the T/C was 98 % of control under setting [5], 94 % of control under setting [6] and 89 % of control under setting [7].
With `O=C(O)c1cc(=O)c2cc3c(=O)cc(C(=O)O)[nH]c3c(Cl)c2[nH]1`, the T/C (dose: 25.0 mg/kg/injection, schedule: Q01DX009 (ip), vehicle: saline with Tween-80) was 96 % of control; the T/C under setting [1] is 96 % of control; the T/C under setting [2] was 100 % of control.
For `BrC1CC2(OCCO2)C(Br)CC12OCCO2` (configuration not stated), the T/C is 99 % of control (dose: 25.0 mg/kg/injection, schedule: Q04DX003 (ip), vehicle: saline); 100 % of control (dose: 50.0 mg/kg/injection, schedule: Q04DX003 (ip), vehicle: saline); 118 % of control (dose: 100.0 mg/kg/injection, schedule: Q04DX003 (ip), vehicle: saline); 103 % of control (dose: 200.0 mg/kg/injection, schedule: Q04DX003 (ip), vehicle: saline); 103 % of control (dose: 400.0 mg/kg/injection, schedule: Q04DX003 (ip), vehicle: saline).
In the case of `N#C/C(=N\Nc1ccccc1Cl)C(=O)C1CC1`, the T/C is 100 % of control under setting [8], 100 % of control under setting [9] and 89 % of control under setting [10].
Consider `CCCCCCCCCCC(=O)C(=O)c1ccc(O)cc1O`, for which the T/C was 111 % of control under setting [11], 112 % of control under setting [12] and 113 % of control under setting [13].
As for `COc1c2c(cc3c1C(O)N(C)CC3)OCO2` (configuration not stated), the T/C (dose: 30.0 mg/kg/injection, schedule: Q01DX005 (ip), vehicle: saline) was 100 % of control; the T/C (dose: 60.0 mg/kg/injection, schedule: Q01DX005 (ip), vehicle: saline) is 100 % of control and 93 % of control.
As for `C=C1CC=CC(C)(C)C12CC(Br)C(C)(Cl)CC2O` (configuration not stated), the T/C (dose: 10.0 mg/kg/injection, schedule: Q01DX009 (ip), vehicle: Klucel (hydroxypropylcellulose) (HPC)) was 115 % of control; the T/C (dose: 20.0 mg/kg/injection, schedule: Q01DX009 (ip), vehicle: Klucel (hydroxypropylcellulose) (HPC)) was 109 % of control; the T/C (dose: 40.0 mg/kg/injection, schedule: Q01DX009 (ip), vehicle: Klucel (hydroxypropylcellulose) (HPC)) was 106 % of control.
Turning to `CN(Cc1cnc2nc(N)[nH]c(=O)c2c1)c1ccc(C(=O)NC(CCC(=O)O)C(=O)O)cc1` (configuration not stated), the T/C reads like this: under setting [14], 98 % of control; (dose: 100.0 mg/kg/injection, schedule: Q01DX005 (ip), vehicle: saline with Tween-80) 100 % of control; (dose: 200.0 mg/kg/injection, schedule: Q01DX005 (ip), vehicle: saline with Tween-80) 111 % of control.
For the molecule `CC(C)C(=O)NCCCCCN1CCCCC1`, the T/C runs as follows: under setting [15], 106 % of control; (dose: 100.0 mg/kg/injection, schedule: Q01DX005 (ip), vehicle: saline) 99 % of control; (dose: 200.0 mg/kg/injection, schedule: Q01DX005 (ip), vehicle: saline) 99 % of control.
With `Cc1ccc(S(=O)(=O)N/N=C/c2c(Cl)n(C)c3ccccc23)cc1`, the T/C was 91 % of control under setting [3]; 97 % of control under setting [4]; 100 % of control (dose: 400.0 mg/kg/injection, schedule: Q01DX001 (ip), vehicle: Klucel (hydroxypropylcellulose) (HPC)).
As for `CC(=O)OC1CC(OC(C)=O)C2(C)CC3=C(O)C(=O)OC3CC(C)C12` (configuration not stated), the T/C by setting is: (dose: 100.0 mg/kg/injection, schedule: Q04DX002 (ip), vehicle: saline with Tween-80) 97 % of control; (dose: 200.0 mg/kg/injection, schedule: Q04DX002 (ip), vehicle: saline with Tween-80) 101 % of control.
For `COc1ccc(OC)c2c(Cl)cc(NCCCCCCCCNc3cc(Cl)c4c(OC)ccc(OC)c4n3)nc12`, the T/C was 101 % of control (dose: 30.0 mg/kg/injection, schedule: Q01DX005 (ip), vehicle: Klucel (hydroxypropylcellulose) (HPC)); 101 % of control under setting [8]; 100 % of control under setting [9]; 100 % of control under setting [10].
As for `CCOC(=O)C(c1ccccc1)N(CCCN(CC)CC)c1ccccc1` (configuration not stated), the T/C by setting is: (dose: 12.5 mg/kg/injection, schedule: Q01DX005 (ip), vehicle: saline) 108 % of control; (dose: 25.0 mg/kg/injection, schedule: Q01DX005 (ip), vehicle: saline) 108 % of control; under setting [14], 100 % of control; under setting [15], 101 % of control.
Take `CN(C)c1ccc(/C=C/c2ccnc3c2ccc2ccccc23)cc1`: the T/C reads like this: (dose: 37.5 mg/kg/injection, schedule: Q04DX003 (ip), vehicle: Klucel (hydroxypropylcellulose) (HPC)) 108 % of control; (dose: 50.0 mg/kg/injection, schedule: Q01DX001 (ip), vehicle: saline with Tween-80) 106 % of control; (dose: 75.0 mg/kg/injection, schedule: Q04DX003 (ip), vehicle: Klucel (hydroxypropylcellulose) (HPC)) 89 % of control; (dose: 100.0 mg/kg/injection, schedule: Q01DX001 (ip), vehicle: saline with Tween-80) 93 % of control; (dose: 150.0 mg/kg/injection, schedule: Q04DX003 (ip), vehicle: Klucel (hydroxypropylcellulose) (HPC)) 103 % of control; (dose: 200.0 mg/kg/injection, schedule: Q01DX001 (ip), vehicle: saline with Tween-80) 91 % of control. Further, the T/C was 96 % of control (dose: 300.0 mg/kg/injection, schedule: Q04DX003 (ip), vehicle: Klucel (hydroxypropylcellulose) (HPC)) and 91 % of control (dose: 400.0 mg/kg/injection, schedule: Q01DX001 (ip), vehicle: saline with Tween-80).
Consider `Cc1noc2c1CC(=O)c1ccccc1OC2`, for which the T/C was 100 % of control (dose: 60.0 mg/kg/injection, schedule: Q01DX005 (ip), vehicle: saline with Tween-80); 98 % of control (dose: 120.0 mg/kg/injection, schedule: Q01DX005 (ip), vehicle: saline with Tween-80); 94 % of control (dose: 240.0 mg/kg/injection, schedule: Q01DX005 (ip), vehicle: saline with Tween-80).
For the molecule `COC(=O)c1cccc2c1Oc1ccccc1S2`, the T/C runs as follows: (dose: 25.0 mg/kg/injection, schedule: Q01DX005 (ip), vehicle: Klucel (hydroxypropylcellulose) (HPC)) 102 % of control; under setting [5], 103 % of control; under setting [6], 102 % of control; under setting [7], 100 % of control.
On to `CC1CC(=O)c2cc(-c3ccccc3)oc2C1` (configuration not stated), for which the T/C is 115 % of control under setting [11], 102 % of control under setting [12] and 97 % of control under setting [13].
